Values after ≈ are worked out from the molar mass of the structure shown. Read-outs that look alike come from different tables or passages of the source.
Columns and labels:
[1] = system: Candida glabrata; assay: microbe, parasite or virus in culture; assay type: cell-based
[2] = system: Candida krusei; assay: Broth microdilution of invasive fungal isolates (CLSI M27-A3/M38-A2); assay type: cell-based; conditions: 16 isolates
[3] = system: C. krusei ATCC 6258; assay: microbe, parasite or virus in culture; assay type: cell-based, Candida krusei; conditions: for MIC: Pichia kudriavzevii
[4] = system: azole-resistant Candida albicans R357 strain; assay: microbe, parasite or virus in culture; assay type: cell-based
[5] = system: C. albicans vaginal isolates; assay: Susceptibility testing of VVC clinical isolates at pH 7 and 4 (CLSI M27-A3); assay type: cell-based, Candida albicans; conditions: Candida albicans; for MIC: read-out: MIC; for MIC90: 60 isolates, read-out: MIC90
[6] = system: C. glabrata ATCC 90030, ATCC 2001; assay: Broth microdilution MIC (CLSI), Examples 3 and 4; conditions: for MIC: Nakaseomyces glabratus
Method: Antifungal susceptibility testing. Candida strains were cultured aerobically at 35° C. on SDA plates or in RPMI 1640 broth (pH 7.0). […] MIC assays were performed in triplicate.

[7] = system: Candida dubliniensis; assay: Broth microdilution of invasive fungal isolates (CLSI M27-A3/M38-A2); assay type: cell-based; conditions: 11 isolates

CC[C@H](C)C[C@H](C)CCCCCCCCC(=O)N[C@H]1C[C@@H](O)[C@@H](NCCN)NC(=O)[C@@H]2[C@@H](O)CCN2C(=O)[C@H]([C@H](O)CCN)NC(=O)[C@H]([C@H](O)[C@@H](O)c2ccc(O)cc2)NC(=O)[C@@H]2C[C@@H](O)CN2C(=O)[C@H]([C@@H](C)O)NC1=O [CAS, caspofungin]
Cumulative % of isolates inhibited at MIC 0.03 μg/mL ([1]; 100 isolates): (38.0) %
Cumulative % of isolates inhibited at MIC 0.06 μg/mL ([1]; 100 isolates): (89.0) %
Cumulative % of isolates inhibited at MIC 0.12 μg/mL ([1]; 100 isolates): (95.0) %
Cumulative % of isolates inhibited at MIC 0.25 μg/mL ([1]; 100 isolates): (95.0) %
Cumulative % of isolates inhibited at MIC 0.5 μg/mL ([1]; 100 isolates): (95.0) %
Cumulative % of isolates inhibited at MIC 1 μg/mL ([1]; 100 isolates): (95.0) %
Cumulative % of isolates inhibited at MIC 2 μg/mL ([1]; 100 isolates): (97.0) %
Cumulative % of isolates inhibited at MIC 4 μg/mL ([1]; 100 isolates): (97.0) %
Cumulative % of isolates inhibited at MIC 8 μg/mL ([1]; 100 isolates): (100.0) %
Number of isolates inhibited at MIC 0.03 μg/mL ([1]; 100 isolates): 38
Number of isolates inhibited at MIC 0.06 μg/mL ([1]; 100 isolates): 51
Number of isolates inhibited at MIC 0.12 μg/mL ([1]; 100 isolates): 6
Number of isolates inhibited at MIC 0.25 μg/mL ([1]; 100 isolates): 0
Number of isolates inhibited at MIC 0.5 μg/mL ([1]; 100 isolates): 0
Number of isolates inhibited at MIC 1 μg/mL ([1]; 100 isolates): 0
Number of isolates inhibited at MIC 2 μg/mL ([1]; 100 isolates): 3
Number of isolates inhibited at MIC 4 μg/mL ([1]; 100 isolates): 0
Number of isolates inhibited at MIC 8 μg/mL ([1]; 100 isolates): 3
MIC50 ([1]; Nakaseomyces glabratus): 0.06 µg/mL (≈ 0.0549 µM)
MIC90 ([1]; Nakaseomyces glabratus): 0.12 µg/mL (≈ 0.11 µM)
MIC ([1]; Nakaseomyces glabratus, read-out: MIC according to CLSI method, isolate from CA, USA, fks1 HS1 S629P): 8 µg/mL (≈ 7.32 µM)
MIC ([1]; Nakaseomyces glabratus, read-out: MIC according to CLSI method, isolate from Canada (first line), fks1 HS1 S629P, fks2 HS1 S663P): > 8 µg/mL
MIC ([1]; Nakaseomyces glabratus, read-out: MIC according to CLSI method, isolate from Canada (second line), fks1 HS1 S629P, fks2 HS1 S663P): > 8 µg/mL
MIC ([1]; Nakaseomyces glabratus, read-out: MIC according to CLSI method, isolate from Israel, fks2 HS1 F659S): 2 µg/mL (≈ 1.83 µM)
MIC ([1]; Nakaseomyces glabratus, read-out: MIC according to CLSI method, isolate from NY, USA, fks2 HS1 S663P): 2 µg/mL (≈ 1.83 µM)
MIC ([1]; Nakaseomyces glabratus, read-out: MIC results, two isolates from same patient, Edmonton, Canada, fks1 HS1 S629P and fks2 HS1 S663P): > 8 µg/mL
Cumulative % of isolates inhibited at MIC 0.06 μg/mL [2]: (25.0) %
Cumulative % of isolates inhibited at MIC 0.12 μg/mL [2]: (87.5) %
Cumulative % of isolates inhibited at MIC 0.25 μg/mL [2]: (100.0) %
Number of isolates inhibited at MIC 0.06 μg/mL [2]: 4
Number of isolates inhibited at MIC 0.12 μg/mL [2]: 10
Number of isolates inhibited at MIC 0.25 μg/mL [2]: 2
MIC50 ([2]; Pichia kudriavzevii, read-out: MIC50): 0.12 µg/mL (≈ 0.11 µM)
MIC90 ([2]; Pichia kudriavzevii, read-out: MIC90): 0.25 µg/mL (≈ 0.229 µM)
MIC fold-shift ([3]; ATCC 6258, WT to P20): 2
MIC ([3]; ATCC6258): 0.5 µg/mL (≈ 0.457 µM)
MIC ([3]; ATCC6258, read-out: MIC P20): 1 µg/mL (≈ 0.915 µM)
Susceptibility (CLSI) ([4]; C. albicans R357): S
MIC ([4]; Candida albicans): 0.25 µg/mL (≈ 0.229 µM)
MIC ([5]; 48 h, pH 4, fluconazole-resistant isolate 1, pH 4, 48 h): 0.25 µg/mL (≈ 0.229 µM)
MIC ([5]; 48 h, pH 4, fluconazole-resistant isolate 2, pH 4, 48 h): 1 µg/mL (≈ 0.915 µM)
MIC ([5]; 48 h, pH 4, fluconazole-resistant isolate 3, pH 4, 48 h): 0.5 µg/mL (≈ 0.457 µM)
MIC ([5]; 48 h, pH 4, fluconazole-resistant isolate 4, pH 4, 48 h): 1 µg/mL (≈ 0.915 µM)
MIC ([5]; 48 h, pH 4, fluconazole-resistant isolate 5, pH 4, 48 h): 4 µg/mL (≈ 3.66 µM)
MIC ([5]; 48 h, pH 4, fluconazole-resistant isolate 6, pH 4, 48 h): 1 µg/mL (≈ 0.915 µM)
MIC ([5]; 48 h, pH 4, fluconazole-resistant isolate 7, pH 4, 48 h): 1 µg/mL (≈ 0.915 µM)
MIC ([5]; 48 h, pH 4, fluconazole-resistant isolate 8, pH 4, 48 h): 0.5 µg/mL (≈ 0.457 µM)
MIC ([5]; 48 h, pH 4, fluconazole-resistant isolate 9, pH 4, 48 h): 1 µg/mL (≈ 0.915 µM)
MIC ([5]; 48 h, pH 4, fluconazole-resistant isolate 10, pH 4, 48 h): 1 µg/mL (≈ 0.915 µM)
MIC ([5]; 48 h, pH 7, fluconazole-resistant isolate 1, pH 7, 48 h): 0.5 µg/mL (≈ 0.457 µM)
MIC ([5]; 48 h, pH 7, fluconazole-resistant isolate 2, pH 7, 48 h): 0.5 µg/mL (≈ 0.457 µM)
MIC ([5]; 48 h, pH 7, fluconazole-resistant isolate 3, pH 7, 48 h): 0.5 µg/mL (≈ 0.457 µM)
MIC ([5]; 48 h, pH 7, fluconazole-resistant isolate 4, pH 7, 48 h): 0.5 µg/mL (≈ 0.457 µM)
MIC ([5]; 48 h, pH 7, fluconazole-resistant isolate 5, pH 7, 48 h): 2 µg/mL (≈ 1.83 µM)
MIC ([5]; 48 h, pH 7, fluconazole-resistant isolate 6, pH 7, 48 h): 1 µg/mL (≈ 0.915 µM)
MIC ([5]; 48 h, pH 7, fluconazole-resistant isolate 7, pH 7, 48 h): 0.5 µg/mL (≈ 0.457 µM)
MIC ([5]; 48 h, pH 7, fluconazole-resistant isolate 8, pH 7, 48 h): 0.5 µg/mL (≈ 0.457 µM)
MIC ([5]; 48 h, pH 7, fluconazole-resistant isolate 9, pH 7, 48 h): 2 µg/mL (≈ 1.83 µM)
MIC ([5]; 48 h, pH 7, fluconazole-resistant isolate 10, pH 7, 48 h): 0.5 µg/mL (≈ 0.457 µM)
MIC90 ([5]; pH 4, 24 h): 0.5 µg/mL (≈ 0.457 µM)
MIC90 ([5]; pH 4, 48 h): 1 µg/mL (≈ 0.915 µM)
MIC90 ([5]; pH 7, 24 h): 0.5 µg/mL (≈ 0.457 µM)
MIC90 ([5]; pH 7, 48 h): 1 µg/mL (≈ 0.915 µM)
Broth MIC ([6]; ATCC 2001 wild-type, 24 h, ~50% inhibition): 0.25 µg/mL
MIC ([6]; 24 h, read-out: Broth MIC): 0.25 µg/mL (≈ 0.229 µM)
MIC ([6]; ATCC2001|ATCC90030, ATCC 2001 spontaneous mutant, Fks2 HS1 D666N): 0.25 µg/mL (≈ 0.229 µM)
MIC ([6]; ATCC2001|ATCC90030, ATCC 2001 spontaneous mutant, Fks2 HS1 D666Y): 0.5 µg/mL (≈ 0.457 µM)
MIC ([6]; ATCC2001|ATCC90030, ATCC 2001 spontaneous mutant, Fks2 HS1 R665G): 0.5 µg/mL (≈ 0.457 µM)
MIC ([6]; ATCC2001|ATCC90030, ATCC 2001 spontaneous mutant, Fks2 HS1 S663F): 1 µg/mL (≈ 0.915 µM)
MIC ([6]; ATCC2001|ATCC90030, ATCC 2001 spontaneous mutant, Fks2 HS1 ΔF659): 16 µg/mL (≈ 14.6 µM)
MIC ([6]; ATCC2001|ATCC90030, ATCC 2001 spontaneous mutant, Fks2 HS2 R1378S): 0.25 µg/mL (≈ 0.229 µM)
MIC ([6]; ATCC2001|ATCC90030, ATCC 90030 spontaneous mutant, Fks2 HS1 D666H): 1 µg/mL (≈ 0.915 µM)
MIC ([6]; ATCC2001|ATCC90030, ATCC 90030 spontaneous mutant, Fks2 HS1 ΔF659): 4 µg/mL (≈ 3.66 µM)
Cumulative % of isolates inhibited at MIC 0.015 μg/mL [7]: (9.1) %
Cumulative % of isolates inhibited at MIC 0.03 μg/mL [7]: (54.5) %
Cumulative % of isolates inhibited at MIC 0.06 μg/mL [7]: (100.0) %
Number of isolates inhibited at MIC 0.015 μg/mL [7]: 1
Number of isolates inhibited at MIC 0.03 μg/mL [7]: 5
Number of isolates inhibited at MIC 0.06 μg/mL [7]: 5
MIC50 ([7]; Candida dubliniensis, read-out: MIC50): 0.03 µg/mL (≈ 0.0274 µM)
MIC90 ([7]; Candida dubliniensis, read-out: MIC90): 0.06 µg/mL (≈ 0.0549 µM)
